Experimental data from patent US10647718B2, “Compounds and use thereof in the expansion of hematopoietic stem cells and/or hematopoietic progenitor cells” (UNIVERSITÉ DE MONTRÉAL, priority 2014, dated 2020).

system: CD34+CD45RA− cell; assay: Hematopoietic stem cell expansion assay (CD34+CD45RA− cell count versus DMSO vehicle cultures); type: cell-based; settings: Homo sapiens, concentration that results in a 50% increase in CD34+CD45RA− cell count compared to vehicle cultures (DMSO), Table 1, pyridopyrrolopyrimidine series, read-out: Biological data EC50
Procedure: As used herein, the term “EC50” is intended to mean the concentration that results in a 50% increase in CD34+CD45RA− cell count compared to vehicle cultures (DMSO).
Screening Assay: screening assays were conducted as described in the inventors' previous patent application, WO 2013/110198.
The following biological assays were used to assess the effect of the compounds of the invention on hematopoietic stem cell expansion The results are illustrated in FIGS. 1 to 6. Culture medium: The culture medium used consisted of serum-free medium supplemented with the following recombinant cytokines: interleukin-6, thrombopoietin, Flt-3 ligand, and stem cell factor, each at a final concentration of 100 ng/ml, in the presence of vehicle (DMSO), positive control (SR1), or compound of the invention or a combination of compounds. Cell Culture: CD34+ cell purity of initial harvests was higher than 90%, as determined by flow cytometry. The CD34+ CD45RA− subpopulation reached purity levels higher than 70%. Cells were plated at 40,000 cells/ml and incubated for 7 to 12-days at 37° C. in 5% CO2. For long term cultures, 200,000 CD34+cells/ml from mobilized PB were plated with serum free media supplemented with interleukin-6, thrombopoietin, Flt3 ligand, and stem cell factor, each at a final concentration of 100 ng/ml, in the presence of vehicle (DMSO), positive control, or a compound of the invention at 500 nM.

| EC50 [nM] | Structure (SMILES) |
| --- | --- |
| 250 to 500 | COC(=O)c1cnc2c(c1)[nH]c1nc(Cc3ccccc3)nc(NCCCN3CCCCC3)c12 [Compound 1, methyl 2-benzyl-4-((3-(piperidin-1-yl)propyl)amino)-9H-pyrido[2′,3′:4,5]pyrrolo[2,3-d]pyrimidine-7-carboxylate] |
| 250 to 500 | COC(=O)c1cnc2c(c1)[nH]c1nc(Cc3ccsc3)nc(NCCCN3CCCCC3)c12 [Compound 2, methyl 4-((3-(piperidin-1-yl)propyl)amino)-2-(thiophen-3-ylmethyl)-9H-pyrido[2′,3′:4,5]pyrrolo[2,3-d]pyrimidine-7-carboxylate] |
| 500 to 1000 | COC(=O)c1cnc2c(c1)[nH]c1nc(Cc3ccsc3)nc(SCCCN3CCCCC3)c12 [Compound 3, methyl 4-((3-(piperidin-1-yl)propyl)thio)-2-(thiophen-3-ylmethyl)-9H-pyrido[2′,3′:4,5]pyrrolo[2,3-d]pyrimidine-7-carboxylate] |
| 250 to 500 | COC(=O)c1cnc2c(c1)[nH]c1nc(Cc3cccc(OC)c3)nc(NCCCN3CCCCC3C)c12 (stereo not shown) [Compound 4, methyl 2-(3-methoxybenzyl)-4-((3-(2-methylpiperidin-1-yl)propyl)amino)-9H-pyrido[2′,3′:4,5]pyrrolo[2,3-d]pyrimidine-7-carboxylate] |
| 500 to 1000 | CCN(CC)CCNc1nc(Cc2cccc(OC)c2)nc2[nH]c3cc(C(=O)OC)cnc3c12 [Compound 5, methyl 4-((2-(diethylamino)ethyl)amino)-2-(3-methoxybenzyl)-9H-pyrido[2′,3′:4,5]pyrrolo[2,3-d]pyrimidine-7-carboxylate] |
| < 100 | COC(=O)c1cnc2c(c1)[nH]c1nc(Cc3ccccc3)nc(N(C)CCCN3CCCCC3)c12 [Compound 6, methyl 2-benzyl-4-(methyl(3-(piperidin-1-yl)propyl)amino)-9H-pyrido[2′,3′:4,5]pyrrolo[2,3-d]pyrimidine-7-carboxylate] |
| 250 to 500 | COC(=O)c1cnc2c(c1)[nH]c1nc(Cc3ccccc3C)nc(NCCCN3CCCCC3)c12 [Compound 7, methyl 2-(2-methylbenzyl)-4-((3-(piperidin-1-yl)propyl)amino)-9H-pyrido[2′,3′:4,5]pyrrolo[2,3-d]pyrimidine-7-carboxylate] |
| 250 to 500 | COC(=O)c1cnc2c(c1)[nH]c1nc(Cc3ccccc3C)nc(NCCCN3CCCC3)c12 [Compound 8, methyl 2-(2-methylbenzyl)-4-((3-(pyrrolidin-1-yl)propyl)amino)-9H-pyrido[2′,3′:4,5]pyrrolo[2,3-d]pyrimidine-7-carboxylate] |
| 500 to 1000 | CNCCCNc1nc(Cc2ccccc2C)nc2[nH]c3cc(C(=O)OC)cnc3c12 [Compound 9, methyl 4-((3-(methylamino)propyl)amino)-2-(2-methylbenzyl)-9H-pyrido[2′,3′:4,5]pyrrolo[2,3-d]pyrimidine-7-carboxylate] |
| 250 to 500 | Cn1nnc(-c2cnc3c(c2)[nH]c2nc(Cc4ccccc4)nc(N[C@H]4CC[C@H](N)CC4)c23)n1 [Compound 10, (1R,4R)—N^1-(2-benzyl-7-(2-methyl-2H-tetrazol-5-yl)-9H-pyrido[2′,3′:4,5]pyrrolo[2,3-d]pyrimidin-4-yl)cyclohexane-1,4-diamine] |
| > 1000 | COC(=O)c1cnc2c(c1)[nH]c1nc(Cc3cccc(F)c3)nc(NCCCN3CCCCC3)c12 [Compound 11, methyl 2-(3-fluorobenzyl)-4-((3-(piperidin-1-yl)propyl)amino)-9H-pyrido[2′,3′:4,5]pyrrolo[2,3-d]pyrimidine-7-carboxylate] |
| 250 to 500 | COC(=O)c1cnc2c(c1)[nH]c1nc(Cc3cccc(F)c3)nc(NCCCN(C)CCCN)c12 [Compound 12, methyl 4-((3-((3-aminopropyl)(methyl)amino)propyl)amino)-2-(3-fluorobenzyl)-9H-pyrido[2′,3′:4,5]pyrrolo[2,3-d]pyrimidine-7-carboxylate] |
| > 1000 | CNCCCNc1nc(Cc2cccc(F)c2)nc2[nH]c3cc(C(=O)OC)cnc3c12 [Compound 13] |
| 500 to 1000 | COC(=O)c1cnc2c(c1)[nH]c1nc(Cc3ccccc3)nc(NCC(C)CN(C)C)c12 (stereo not shown) [Compound 14, methyl 2-benzyl-4-((3-(dimethylamino)-2-methylpropyl)amino)-9H-pyrido[2′,3′:4,5]pyrrolo[2,3-d]pyrimidine-7-carboxylate] |
| 100 to 250 | COC(=O)c1cnc2c(c1)[nH]c1nc(Cc3ccccc3)nc(N3CCC(N(C)C)CC3)c12 [Compound 15, methyl 2-benzyl-4-(4-(dimethylamino)piperidin-1-yl)-9H-pyrido[2′,3′:4,5]pyrrolo[2,3-d]pyrimidine-7-carboxylate] |
| 250 to 500 | CCN(CC)CCN(CC)c1nc(Cc2ccccc2)nc2[nH]c3cc(C(=O)OC)cnc3c12 [Compound 16, methyl 2-benzyl-4-((2-(diethylamino)ethyl)(ethyl)amino)-9H-pyrido[2′,3′:4,5]pyrrolo[2,3-d]pyrimidine-7-carboxylate] |

same assay, conditions: Homo sapiens, concentration that results in a 50% increase in CD34+CD45RA− cell count compared to vehicle cultures (DMSO), Table 1′, pyrido[4,3-b]indole series, read-out: Biological data EC50

| Structure (SMILES) | EC50 [nM] |
| --- | --- |
| COC(=O)c1ccc2c(c1)[nH]c1cc(Cc3ccccc3)nc(N(C)CCCN(C)C)c12 [4′, methyl 3-benzyl-1-((3-(dimethylamino)propyl)(methyl)amino)-5H-pyrido[4,3-b]indole-7-carboxylate] | < 100 |
| COC(=O)c1ccc2c(c1)[nH]c1cc(Cc3ccsc3)nc(NCCN(C)CCNC(=O)OC(C)(C)C)c12 [8′, methyl 1-((2-((2-((tert-butoxycarbonyl)amino)ethyl)(methyl)amino)ethyl)amino)-3-(thiophen-3-ylmethyl)-5H-pyrido[4,3-b]indole-7-carboxylate] | > 1000 |
| COC(=O)c1ccc2c(c1)[nH]c1cc(Cc3ccsc3)nc(N[C@H]3CC[C@H](N)CC3)c12 [13′, methyl 1-(((1r,4r)-4-aminocyclohexyl)amino)-3-(thiophen-3-ylmethyl)-5H-pyrido[4,3-b]indole-7-carboxylate] | 100 to 250 |

Results, then the molecule that gave them:

| EC50 [nM] | Structure (SMILES) |
| --- | --- |
| > 1000 | COC(=O)c1ccc2c(c1)[nH]c1ccnc(NCCCN3CCCCC3)c12 [1′, methyl 1-((3-(piperidin-1-yl)propyl)amino)-5H-pyrido[4,3-b]indole-7-carboxylate] |
| < 100 | COC(=O)c1ccc2c(c1)[nH]c1cc(Cc3ccccc3)nc(NCCCN3CCCCC3)c12 [2′, methyl 3-benzyl-1-((3-(piperidin-1-yl)propyl)amino)-5H-pyrido[4,3-b]indole-7-carboxylate] |
| < 100 | COC(=O)c1ccc2c(c1)[nH]c1cc(Cc3ccccc3)nc(NCCN3CCCC3)c12 [3′, methyl 3-benzyl-1-((2-(pyrrolidin-1-yl)ethyl)amino)-5H-pyrido[4,3-b]indole-7-carboxylate] |
| 100 to 250 | Cn1nnc(-c2ccc3c(c2)[nH]c2cc(Cc4ccccc4)nc(NCCCN4CCCCC4)c23)n1 [5′, 3-benzyl-7-(2-methyl-2H-tetrazol-5-yl)-N-(3-(piperidin-1-yl)propyl)-5H-pyrido[4,3-b]indol-1-amine] |
| < 100 | COC(=O)c1ccc2c(c1)[nH]c1cc(Cc3cccc(OC)c3)nc(NCCCCN3CCCC3)c12 [6′, methyl 3-(3-methoxybenzyl)-1-((4-(pyrrolidin-1-yl)butyl)amino)-5H-pyrido[4,3-b]indole-7-carboxylate] |
| < 100 | COC(=O)c1ccc2c(c1)[nH]c1cc(Cc3cccc(O)c3)nc(NCCCCN3CCCC3)c12 [7′, methyl 3-(3-hydroxybenzyl)-1-((4-(pyrrolidin-1-yl)butyl)amino)-5H-pyrido[4,3-b]indole-7-carboxylate] |
| 500 to 1000 | COC(=O)c1ccc2c(c1)[nH]c1cc(Cc3cccnc3)nc(NCCCN3CCOCC3)c12 [9′, methyl 1-((3-morpholinopropyl)amino)-3-(pyridin-3-ylmethyl)-5H-pyrido[4,3-b]indole-7-carboxylate] |
| 100 to 250 | COC(=O)c1ccc2c(c1)[nH]c1cc(Cc3ccsc3)nc(NCCCN3CCCCC3)c12 [10′, methyl 1-((3-(piperidin-1-yl)propyl)amino)-3-(thiophen-3-ylmethyl)-5H-pyrido[4,3-b]indole-7-carboxylate] |
| > 1000 | COC(=O)c1ccc2c(c1)[nH]c1cc(Cc3cccnc3)nc(N3CCC(N4CCCC4)CC3)c12 [11′, methyl 3-(pyridin-3-ylmethyl)-1-(4-(pyrrolidin-1-yl)piperidin-1-yl)-5H-pyrido[4,3-b]indole-7-carboxylate] |
| > 1000 | CNCCCN(C)c1nc(Cc2cccnc2)cc2[nH]c3cc(C(=O)OC)ccc3c12 [12′, methyl 1-(methyl(3-(methylamino)propyl)amino)-3-(pyridin-3-ylmethyl)-5H-pyrido[4,3-b]indole-7-carboxylate] |
| 250 to 500 | COC(=O)c1ccc2c(c1)[nH]c1cc(Cc3ccsc3)nc(NCCN(C)CCN)c12 [14′, methyl 1-((2-((2-aminoethyl)(methyl)amino)ethyl)amino)-3-(thiophen-3-ylmethyl)-5H-pyrido[4,3-b]indole-7-carboxylate] |
| < 100 | COC(=O)c1ccc2c(c1)[nH]c1cc(Cc3ccsc3)nc(NCCC[N+]3(CC(N)=O)CCCCC3)c12 [15′, 1-(2-amino-2-oxoethyl)-1-(3-((7-(methoxycarbonyl)-3-(thiophen-3-ylmethyl)-5H-pyrido[4,3-b]indol-1-yl)amino)propyl)piperidin-1-ium iodide] |
